Data from patent US8476408B2, “Unacylated ghrelin and analogs as therapeutic agents for vascular remodeling in diabetic patients and treatment of cardiovascular disease” (Alize Pharma SAS, priority 2008, dated 2013).
Values belong to the substance of their own block, whether it stands above or below them. Where no end group is shown, it is not given here. The star is where a group is joined. Octanoyl = CCCCCCCC(=O)*

Key:
[1] = tested on: CAC; experiment: Detection of ROS in CAC (DCF-DA assay, FACS); format: cell-based, human; conditions: for baseline level of ROS production: compared to untreated cells, FIG. 1B, 1E
Protocol: Peripheral-blood mononuclear cells (PB-MNC) isolated by Fycoll Histopaque 1077 (Sigma) were resuspended in 20% FBS 199 Medium and plated on fibronectin-coated dishes (Biocoat, Becton Dickinson Labware) as described by Hill et al. (Ref. 19). Human UAG studies were performed on CAC recovered from normal donors and diabetic patients. The purity of sorted cells was assessed by FACS analysis (Ref. 20). For experiments, the isolated CAC were cultured under 5% CO2 at 37° C. for 4 days on 20 μg/ml fibronectin-coated dishes in EGM-2 medium containing 10% FBS, hydrocortisone, human Fibroblast Growth Factor, Vascular Endothelial Growth Factor, Insulin Growth Factor 1, ascorbic acid, human Epidermal Growth Factor, gentamicin and amphotericin-B (Cambrex, Walkersville, Md., USA) alone or in combination with 1 μM UAG and 1.2 mg/ml AGE. In selected experiments, isolated CAC were cultured in EBM-2 medium (Cambrex, Walkersville, Md., USA) supplemented with 10 ng/ml of IL-3. FACS was used to analyze their phenotype (anti-CD45, anti-CD31, anti-CD105, anti-CD14 antibodies were used) (Ref. 22).
Detection of ROS—DCF-DA (0.5 μM final concentration) was added to CAC in the indicated culture conditions. At the indicated times, the cells were subjected to FACS analysis and processed as previously described (Ret. 22). H2O2 was used as positive control.

[2] = tested on: CAC; experiment: CAC mobilization assay in healthy subjects and diabetic patients; format: in vivo, human; conditions: diabetic patients compared to normal subjects, 6 hours treatment; FIG. 3B
Protocol: All the subjects underwent the following testing session: • UAG (3.0 μg/kg/h iv. as infusion for 12 h from 0 to 12 hours); • isotonic saline (infusion from 0 to 12 hours).
All tests were performed starting at 08.30-09.00 a.m. after overnight fasting, 30 minutes after an indwelling catheter had been placed into a forearm vein by slow infusion of isotonic saline. Blood samples were taken at 0 h, 6 h and 12 h.
Mobilization assay—CAC recovered from healthy subjects and diabetic patients, treated with UAG or saline for 6 h and 12 h, were evaluated. Total number of MNC was counted by 3 independent investigators. The percentage of CAC was calculated by comparing CAC obtained from diabetic patients and healthy donors, treated for 6 h and 12 h with UAG, AG or saline, to CAC recovered at time 0.

[3] = tested on: cardiomyocytes; conditions: Ref. 8; cited from earlier work
[4] = tested on: human umbilical vein endothelial cells (HUVECs); conditions: Ref. 5; cited from earlier work
[5] = tested on: human microvascular endothelial cells (HMVECs); conditions: Ref. 4; cited from earlier work
[6] = tested on: human arteries; conditions: Ref. 35; cited from earlier work
[7] = tested on: HIT-T15 β-cells; experiment: Survival of cytokine-treated HIT-T15 β-cells (MTT); format: cell-based; conditions: cytokines (IFN-γ/TNF-α/IL-1β), peptides 1 nM to 100 nM
Protocol: The survival effect of UAG (6-13) (SEQ ID NO: 6), UAG (8-13) (SEQ ID NO: 7), UAG (8-12) (SEQ ID NO: 8), UAG (8-11) (SEQ ID NO: 12), UAG (9-12) (SEQ ID NO: 9) and UAG (9-11) (SEQ ID NO: 10) was assessed in cytokine-treated HIT-T15 β-cells. […] The protective effects of peptides UAG (8-13) (SEQ ID NO: 7) and UAG (8-12) (SEQ ID NO: 8) were found similar to those of UAG (1-14) (SEQ ID NO: 2) and UAG (1-18) (SEQ ID NO: 3). A peptide made of the inverse sequence of UAG (1-14) (SEQ ID NO: 2) and named UAG (14-1) (SEQ ID NO: 11), was used as negative control for these experiments. […] These effects were however lower than those of UAG (6-13) (SEQ ID NO: 6).

[8] = tested on: CAC membranes; experiment: Competition binding with [125I-Tyr4]-UAG on CAC membranes; design: species or system human; conditions: 100 nM unlabelled competitor, radioligand 0.25 nM; FIG. 5A
Source text: The specific binding of [^125I-Tyr^4]-UAG (calculated as difference between binding in the absence, control, and in the presence of UAG) represented about 75% of the control value (P<0.001) and was detected either on fresh (0.25 and 0.26 fmol) or frozen-thawed (0.20 and 0.33 fmol) CAC membranes from two different cell preparations.

[9] = tested on: cloned cells; conditions: cited from earlier work
[10] = tested on: GH secretion; conditions: compared with Ghrelin-28; cited from earlier work

Substance: AG: 28 amino acid peptide with an n-octanoyl modification on the Ser3 residue; endogenous ligand of GHSR (GSS(Octanoyl)FLSPEHQRVQQRKESKKPPAKLQPR; listed as Homo sapiens) [reference compound]
baseline level of ROS production [1]: A protective effect failed to be detected
number of recovered CAC [2]: No statistical differences
experimentally-induced cell death [3]: inhibit experimentally-induced cell death
basal and TNF-α-induced chemotactic cytokine production and mononuclear cell adhesion [4]: inhibit basal and TNF-α-induced chemotactic cytokine production and mononuclear cell adhesion
cell proliferation, migration, in vitro angiogenesis and ERK2 phosphorylation [5]: significantly increased cell proliferation, migration, in vitro angiogenesis and ERK2 phosphorylation
vasodilator action [6]: vasodilator actions

Substance: EHQRVQ [UAG (8-13)]
survival effect on cytokine-induced cell death [7]: significant protective effect at all the concentrations examined

Substance: GSSFLSPEHQRVQQ [UAG (1-14)]
survival effect on cytokine-induced cell death [7]: similar

Substance: GSSFLSPEHQRVQQRKES [UAG (1-18)]
survival effect on cytokine-induced cell death [7]: similar

Substance: Glu-His-Gln-Arg-Val (EHQRV; listed as Homo sapiens) [UAG (8-12)]
survival effect on cytokine-induced cell death [7]: significant, although reduced protection, only at 10 nM and 100 nM

inhibition of binding of [125I-Tyr4]-UAG to CAC membranes [8]: inhibited
Substance: Ser-Pro-Glu-His-Gln-Arg-Val-Gln (SPEHQRVQ; not fully specified (C-terminus); printed as Ser-Pro-Glu-His-Gln-Arg-Val-Gln; listed as Homo sapiens) [UAG (6-13)]
survival effect on cytokine-induced cell death [7]: potently inhibited cytokine-induced cell death
level of ROS production in AGE-cultured cells ([1]; AGE-cultured CAC, FIG. 1C, 1F): reduced
baseline level of ROS production [1]: also reduces the baseline level of ROS production

Substance: UAG (8-11): fragment of unacylated ghrelin, residues 8 to 11 of SEQ ID NO: 1 (EHQR; listed as Homo sapiens)
survival effect on cytokine-induced cell death [7]: significant survival effect only at 100 nM

Substance: UAG (9-11): fragment of unacylated ghrelin, residues 9 to 11 of SEQ ID NO: 1 (HQR)
survival effect on cytokine-induced cell death [7]: no significant effect at both concentrations tested

Substance: UAG (9-12): fragment of unacylated ghrelin, residues 9 to 12 of SEQ ID NO: 1 (HQRV; listed as Homo sapiens)
survival effect on cytokine-induced cell death [7]: significantly increased cell survival at both the concentrations tested

Substance: des Gln-14 Ghrelin: isoform of ghrelin-28, a 27 amino acid peptide possessing serine 3 modification by n-octanoic acid (GSS(Octanoyl)FLSPEHQRVQRKESKKPPAKLQPR; listed as Homo sapiens)
Ca2+ fluxes [9]: elicits Ca^2+ fluxes in cloned cells
GH secretion [10]: induces GH secretion with similar potency as Ghrelin-28
